For 22 compounds, EC50 results are on record in patent publication US20110319379A1, “Substituted Indazole Amides And Their Use As Glucokinase Activators” (priority 2009, published 2011).

As usually defined, the EC50 is the concentration giving half of the maximal effect.

The target in this experiment is T1, recombinant human glucokinase (Homo sapiens, UniProt P35557).
T1 construct: Full-length glucokinase (beta cell isoform) was His-tagged at the N-terminus and purified by a Ni column followed by size exclusion chromatography as described above; His tag; made in house; host or cells: E. coli BL21(DE3), vector pBCGK
T1 sequence (P35557 1-465): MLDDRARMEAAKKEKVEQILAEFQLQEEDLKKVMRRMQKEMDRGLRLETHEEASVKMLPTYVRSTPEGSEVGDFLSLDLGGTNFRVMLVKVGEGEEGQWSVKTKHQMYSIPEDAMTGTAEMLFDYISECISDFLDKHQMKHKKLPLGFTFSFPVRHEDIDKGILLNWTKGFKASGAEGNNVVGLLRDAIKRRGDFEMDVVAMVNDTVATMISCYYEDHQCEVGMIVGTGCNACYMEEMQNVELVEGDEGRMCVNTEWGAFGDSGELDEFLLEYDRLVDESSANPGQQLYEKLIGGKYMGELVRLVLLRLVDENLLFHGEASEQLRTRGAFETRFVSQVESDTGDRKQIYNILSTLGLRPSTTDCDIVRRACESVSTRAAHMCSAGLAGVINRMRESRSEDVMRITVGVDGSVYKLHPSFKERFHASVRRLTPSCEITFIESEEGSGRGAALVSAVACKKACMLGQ
Description: Assay 2: Evaluating Activator Potency in a Matrix Assay at Multiple Glucose Concentrations. Particulars: Assay 2 matrix assay; 16 glucose concentrations; intrinsic EC50 = concentration affording a 50% reduction in the enzyme's Km (for glucose); read-out: Glucokinase EC50. The experiment is classed as biochemical. Here is the method:
Representative compounds of this invention were evaluated in biochemical assays (Assay 1 or Assay 2) to characterize their glucokinase activation properties.
The recombinant human glucokinase protein utilized in both assays was prepared and purified as described below.
BL21(DE3) cells (Invitrogen Corporation, Carlsbad, Calif.) containing pBCGK (C or N H is) vector were grown at 37° C. (in 2XYT) until the OD600 was between 0.6-1.0. Expression was induced by addition of isopropylthiogalactoside to a final concentration of 0.1-0.2 mM to the cells which were then incubated overnight at 23° C. The next day, cells were harvested via centrifugation at 5000 rpm for 15 minutes at 4° C. The cell pellet was stored at −80° C. for future purification.
Beta Cell Glucokinase His-Taq Purification Conditions: A Ni-NTA (Quigan, Germantown, Md.) column (15-50 mL) was used for separation. Two buffers were prepared, 1) a lysis/nickel equilibration and wash buffer and 2) a nickel elution buffer. The lysis/equilibration/wash buffer was prepared as such: 25 mM HEPES buffer at pH 7.5, 250 mM NaCl, 20 mM imidazole, and 14 mM β-mercaptoethanol as final concentrations. The elution buffer was prepared as such: 25 mM HEPES at pH 7.5, 250 mM NaCl, 400 mM imidazole, and 14 mM β-mercaptoethanol as final concentrations. The buffers were each filtered with a 0.22 μm filter prior to use. The cell pellet (1 L culture) was resuspended in 300 mL of the lysis/equilibration buffer. The cells were then lysed (3 times) with a Microfluidics Model 110Y microfluidizer (Microfluidics Corporation, Newton, Mass.). The slurry was centrifuged with a Beckman Coulter Model LE-80K ultracentrifuge (Beckman Coulter, Fullerton, Calif.) at 40,000 rpm for 45 minutes at 4° C. The supernatant was transferred to a chilled flask. A volume of 20 μl was saved for gel analysis. A Pharmacia AKTA (GMI, Inc., Ramsey, Minn.) purification system was used for separation. The prime lines were purged with lysis/equilibration buffer. The Ni-NTA column was equilibrated with 200 mL of the lysis/equilibration buffer at a flow rate of 5 mL/minute. The supernantant was loaded over the column at 4 mL/minute and the flow-through was collected in a flask. The unbound proteins were washed with lysis/equilibration buffer at a flow rate of 5 mL/minute until the ultraviolet reaches baseline. The protein was then eluted from the column with the imidazole elution buffer via imidazole gradient 20 mM to 400 mM over 320 mL. The column was then stripped of any additional protein with 80 mL of the elution buffer. The elution fractions were each 8 mL, for a total yield of 50 samples. Fractions were analyzed by sodium dodecyl sulfate polyacrylamide (SDS-PAGE) and the fractions containing protein of interest were pooled and concentrated to 10 mL using ultrafiltration cell with a 10,000 molecular weight cut-off (MWCO) Millipore membrane (Sigma-Aldrich, St. Louis, Mo.) under nitrogen gas (60 psi). Protein was further purified by size exclusion chromatography (SEC) using a […] (320 mL) (Amersham Pharmacia, Uppsala, Sweden). SEC was equilibrated with 450 mL sizing buffer containing 25 mM HEPES pH 7.0, 50 mM NaCl, and 5 mM dithiothreitol. Concentrated protein was then loaded over SEC and elution with 400 mL sizing buffer was performed overnight at 0.5 mL/minute. The elution fractions were 5 mL each. The fractions were analyzed by SDS-PAGE and protein containing fractions were pooled. Concentration was measured using Bradford Assay/BSA Standard. Purified protein was stored in small aliquots at −80° C.
Assay 2: Evaluating Activator Potency in a Matrix Assay at Multiple Glucose Concentrations
Utilizing an adaptation of this method, representative compounds of the current invention were evaluated at 22 different concentrations and 16 different glucose concentrations in a coupled enzyme assay system that detects glucokinase activity via depletion of β-NADH.
Regarding `CC(C)n1cc2c(Oc3cnc(C(=O)N(C)C)cn3)cc(C(=O)Nc3ccn(C)n3)cc2n1` [Example 1BV, 4-(5-(dimethylcarbamoyl)pyrazin-2-yloxy)-2-isopropyl-N-(1-methyl-1H-pyrazol-3-yl)-2H-indazole-6-carboxamide], the 50% effective concentration (EC50) amounted to 1.59 µM. To `Cn1cc2c(Oc3cnc(C(=O)N4CCCC4)cn3)cc(C(=O)Nc3cnn(C)n3)cc2n1` [Example 1BW, 2-methyl-N-(2-methyl-2H-1,2,3-triazol-4-yl)-4-(5-(pyrrolidine-1-carbonyl)pyrazin-2-yloxy)-2H-indazole-6-carboxamide] belongs 4.64 µM; to `CCn1cc2c(Oc3cnc(C(=O)N4CCC4)cn3)cc(C(=O)Nc3cnn(C)n3)cc2n1` [Example 1BX, 4-(5-(azetidine-1-carbonyl)pyrazin-2-yloxy)-2-ethyl-N-(2-methyl-2H-1,2,3-triazol-4-yl)-2H-indazole-6-carboxamide], 15.1 µM.

Take `CC(C)n1cc2c(Oc3cnc(C(=O)N4CCC4)cn3)cc(C(=O)Nc3cnn(C)n3)cc2n1` [Example 1BY, 4-(5-(azetidine-1-carbonyl)pyrazin-2-yloxy)-2-isopropyl-N-(2-methyl-2H-1,2,3-triazol-4-yl)-2H-indazole-6-carboxamide]: the EC50 came out at 17.5 µM.

Regarding `CCn1cc2c(Oc3cnc(C(=O)N(C)C)cn3)cc(C(=O)Nc3cnn(C)n3)cc2n1` [Example 1BZ, 4-(5-(dimethylcarbamoyl)pyrazin-2-yloxy)-2-ethyl-N-(2-methyl-2H-1,2,3-triazol-4-yl)-2H-indazole-6-carboxamide], the EC50 worked out at 25.1 µM. To `CCn1cc2c(Oc3ccc(S(C)(=O)=O)cc3)cc(C(=O)Nc3cnn(C)n3)cc2n1` [Example 1CA, 2-ethyl-4-[4-(methylsulfonyl)phenoxy]-N-(2-methyl-2H-1,2,3-triazol-4-yl)-2H-indazole-6-carboxamide] belongs 8.52 µM; to `CCn1cc2c(Oc3ccc(S(C)(=O)=O)cc3)cc(C(=O)Nc3cnc(C)cn3)cc2n1` [Example 1CB, 2-ethyl-N-(5-methylpyrazin-2-yl)-4-[4-(methylsulfonyl)phenoxy]-2H-indazole-6-carboxamide], 0.537 µM. `CCn1cc2c(Oc3ccc(S(C)(=O)=O)cc3)cc(C(=O)Nc3ccn(C)n3)cc2n1` [Example 1CC, 2-ethyl-N-(1-methyl-1H-pyrazol-3-yl)-4-[4-(methylsulfonyl)phenoxy]-2H-indazole-6-carboxamide]: the EC50 worked out at 1.21 µM. For the compound `CCn1cc2c(Oc3ccc(S(C)(=O)=O)cc3)cc(C(=O)Nc3ccc(C(N)=O)cn3)cc2n1` [Example 1CD, N-(5-carbamoylpyridin-2-yl)-2-ethyl-4-[4-(methylsulfonyl)phenoxy]-2H-indazole-6-carboxamide], the EC50 came out at 0.261 µM. Consider `CCn1cc2c(Oc3ccc(S(C)(=O)=O)cc3)cc(C(=O)Nc3ccc(CC(N)=O)cn3)cc2n1` [Example 1CE, N-[5-(2-amino-2-oxoethyl)pyridin-2-yl]-2-ethyl-4[4-(methylsulfonyl)phenoxy]-2H-indazole-6-carboxamide], for which the 50% effective concentration (EC50) was determined as 0.558 µM.

As for `CCn1cc2c(Oc3ccc(S(C)(=O)=O)cc3)cc(C(=O)Nc3ccn(CC(N)=O)n3)cc2n1` [Example 1CG, N-[1-(2-amino-2-oxoethyl)-1H-pyrazol-3-yl]-2-ethyl-4-[4-(methylsulfonyl)phenoxy]-2H-indazole-6-carboxamide], the EC50 is 1.49 µM. For `CCn1cc2c(Oc3ccc(S(C)(=O)=O)cc3)cc(C(=O)Nc3ccc(F)cn3)cc2n1` [Example 1CI, 2-ethyl-N-(5-fluoropyridin-2-yl)-4-[4-(methylsulfonyl)phenoxy]-2H-indazole-6-carboxamide], the EC50 was 0.714 µM.

Regarding `Cn1cc(NC(=O)c2cc(Oc3ccc(S(C)(=O)=O)cc3)c3cn(C)nc3c2)nn1` [Example 1CJ, 2-methyl-4-[4-(methylsulfonyl)phenoxy]-N-(1-methyl-1H-1,2,3-triazol-4-yl)-2H-indazole-6-carboxamide], the half-maximal effective concentration (EC50) is 0.282 µM. To `CCn1cc2c(Oc3ccc(S(C)(=O)=O)cc3)cc(C(=O)Nc3ccc(C(=O)OC)cn3)cc2n1` [Example 1CK, methyl 6-[({2-ethyl-4-[4-(methylsulfonyl)phenoxy]-2H-indazol-6-yl}carbonyl)amino]nicotinate] belongs 0.396 µM.

Consider `CCn1cc2c(Oc3ccc(S(C)(=O)=O)cc3)cc(C(=O)Nc3ncns3)cc2n1` [Example 1CL, 2-ethyl-4-[4-(methylsulfonyl)phenoxy]-N-1,2,4-thiadiazol-5-yl-2H-indazole-6-carboxamide], for which the EC50 turned out to be 0.919 µM. To `CCn1cc2c(Oc3cnc(NC(C)=O)cn3)cc(C(=O)Nc3ccc(C)cn3)cc2n1` [Example 1CM, 4-(5-acetamidopyrazin-2-yloxy)-2-ethyl-N-(5-methylpyridin-2-yl)-2H-indazole-6-carboxamide] belongs 2.45 µM. To `CC(=O)N(C)c1cnc(Oc2cc(C(=O)Nc3ccc(C)cn3)cc3nn(C)cc23)cn1` [Example 1CN, 2-methyl-4-(5-(N-methylacetamido)pyrazin-2-yloxy)-N-(5-methylpyridin-2-yl)-2H-indazole-6-carboxamide] belongs 2.32 µM.

On to `CCn1cc2c(Oc3cnc(C(N)=O)cn3)cc(C(=O)Nc3ccc(C)cn3)cc2n1` [Example 1CO, 4-(5-carbamoylpyrazin-2-yloxy)-2-ethyl-N-(5-methylpyridin-2-yl)-2H-indazole-6-carboxamide], for which the concentration for a half-maximal effect (EC50) turned out to be 1.88 µM. For `CCn1cc2c(Oc3cnc(C(=O)N4CCOCC4)cn3)cc(C(=O)Nc3ccc(C)cn3)cc2n1` [Example 1CP, 2-ethyl-N-(5-methylpyridin-2-yl)-4-(5-(morpholine-4-carbonyl)pyrazin-2-yloxy)-2H-indazole-6-carboxamide], the half-maximal effective concentration (EC50) was determined as 2.28 µM.

As for `CCn1cc2c(Oc3ccc(S(N)(=O)=O)cc3)cc(C(=O)Nc3ccn(C)n3)cc2n1` [Example 1CQ, 4-[4-(aminosulfonyl)phenoxy]-2-ethyl-N-(1-methyl-1H-pyrazol-3-yl)-2H-indazole-6-carboxamide], the EC50 was 2.88 µM. To `CCn1cc2c(Oc3ccc(S(N)(=O)=O)cc3)cc(C(=O)Nc3cnc(C)cn3)cc2n1` [Example 1CR, 4-[4-(aminosulfonyl)phenoxy]-2-ethyl-N-(5-methylpyrazin-2-yl)-2H-indazole-6-carboxamide] belongs 0.586 µM; to `CCn1cc2c(Oc3ccc(S(N)(=O)=O)cc3)cc(C(=O)Nc3cnc(OC)cn3)cc2n1` [Example 1CS, 4-[4-(aminosulfonyl)phenoxy]-2-ethyl-N-(5-methoxypyrazin-2-yl)-2H-indazole-6-carboxamide], 0.418 µM.
